Values of other authors, collected in US20140228287A1, “1-[(3-CYANO-PYRIDIN-2-YL)METHYL]-3-METHYL-7-(2-BUTYN-1-YL)-8-[3-(R)-AMINO-PIPERIDIN-1-YL]-AXANTHINE FOR THE TREATMENT OF A METABOLIC DISORDER OF A PREDOMINANTLY CARNIVOROUS NON-HUMAN ANIMAL” (BOEHRINGER INGELHEIM VETMEDICA GMBH, priority 2010, published 2014).

Assays:
[1] = system: GLP-1; settings: after administration to rats and to cats; cited from earlier work
[2] = system: plasma glucagon; settings: in vivo; cited from earlier work

Compound | effect of GLP-1 [1] | plasma glucagon concentration in cats [2]
CC#CCn1c(N2CCC[C@@H](N)C2)nc2c1c(=O)n(Cc1nc(C)cc3ccccc13)c(=O)n2C [1-[(3-Methyl-isochinoline-1-yl)methyl]-3-methyl-7-(2-butin-1-yl)-8-((R)-3-amino-piperidine-1-yl)-xanthine] | the effect of GLP-1 could be prolonged | 
N#Cc1ccc(NCCNCC(=O)N2CCC[C@H]2C#N)nc1 [NVP-DPP728] |  | reduce the plasma glucagon concentration
